Starred links: 1 amine or outer side, 2 acyl side, 3 side chain; linkers in the order of their positions; H or OH if unused. Non-standard residues stand in square brackets, D forms with d. Primed or numbered codes have the meaning given here. No end group written: not given here. Kβ = L-β-lysine, O=C(C[C@H](CCCN[*:3])N[*:1])[*:2]; β3hY = N[C@H](CC(=O)O)Cc1ccc(O)cc1; Kβ″ = beta-amino acid residue (K); β3hK = NCCCC[C@H](N)CC(=O)O; β3hA = C[C@H](N)CC(=O)O; Yβ = β-tyrosine
Legend:
[1] = tested on: relapsing remitting EAE in SJL/J mice; test: Prophylactic (pre-treatment) efficacy in relapsing remitting EAE; type: in vivo; conditions: pre-treatment 0.5 mg in IFA; FIG. 2i
Experimental: (§1) To induce RR EAE or chronic progressive EAE, SJL/J or C57BL6/J mice were immunized subcutaneously with 0.2 mg of MBP (85-109) or 0.1 mg MOG (35-55) emulsified in CFA and 200 ng of pertussis toxin was injected intraperitoneally on day 0 and day 2 so as to permeablize the blood brain barrier. All the animals in various experimental groups were scored daily for clinical disability on a scale of 0-6 where 0=no neurological symptoms, 1=limp tail, 2=weakness of hind limbs or ataxia, 3=incomplete paralysis of hind limbs, 4=complete paralysis of hind limbs, 5=complete paralysis of all four limbs, 6=dead. Diseased animals were provided easy access to food and water.

[2] = tested on: SJL/J mice exhibiting MBP (85-109) induced relapsing remitting form of EAE; test: Therapeutic activity in MBP (85-109) induced relapsing remitting EAE, treatment from day 11; type: in vivo; conditions: for Therapeutic activity in comparison to GA (Therapeutic activity (Analogs) − Therapeutic activity GA) / Therapeutic activity in comparison to J5 (Therapeutic activity (Analogs) − Therapeutic activity (J5)) / Therapeutic activity = % reduction in cumulative clinical disability score: SJL/J mice, RR EAE; for Therapeutic activity in comparison to GA (Therapeutic activity (Analogs) − Therapeutic activity GA) / Therapeutic activity in comparison to J5 (Therapeutic activity (Analogs) − Therapeutic activity (J5)): 0.1 mg daily for two weeks; for Therapeutic activity = % reduction in cumulative clinical disability score: synthetic peptides, 0.1 mg daily for two weeks from day 11 post-immunization
Experimental: SJL/J and C57BL6/J mice procured from Jackson's laboratory (Bar Harbor, Me.) were maintained under standard housing conditions in the central animal facility at NII as per institutional ethical committee guidelines. 8-10 week old female SJL/J mice were used throughout the study.
as §1
GA, J91, J92, S101, S102, S103 for two weeks and scored for clinical disability.

| Substance | delay of clinical onset of disease [1] | Therapeutic activity in comparison to GA (Therapeutic activity (Analogs) − Therapeutic activity GA) [2] | Therapeutic activity in comparison to J5 (Therapeutic activity (Analogs) − Therapeutic activity (J5)) [2] | efficacy relative to GA ([2]; both treatment and pre-treatment scenarios) | Therapeutic activity = % reduction in cumulative clinical disability score [2] |
| --- | --- | --- | --- | --- | --- |
| Eβ^3Kβ^3Pβ^3Kβ^3Vβ^3Eβ^3Aβ^3Yβ^3Kβ^3Aβ^3Aβ^3Aβ^3Aβ^3Pβ^3Aβ^3 [Analog S15] | ~3 days | 30.91% | 26.95% | approximately two times better | 62.25% |
| VEβ^3Aβ^3Yβ^3Kβ^3 [Analog S38] |  | −4.813% | −8.77% |  | 26.52% |
| EKPKVEAYKAAAβ^3Aβ^3Pβ^3Aβ^3 [Analog S4] |  | 4.492% | 0.5348% |  | 35.83% |
| VEAβ^3Yβ^3Kβ^3 [Analog S37] |  | −0.9626% | −4.92% |  | 30.37% |
| EKPKVEAYKAβAβAβAβPAβ [Analog S45] |  | 23.53% | 19.57% |  | 54.87% |
| EKPKVβ^3Eβ^3Aβ^3Yβ^3Kβ^3Aβ^3Aβ^3Aβ^3Aβ^3Pβ^3Aβ^3 [Analog S11] |  | 23.53% | 19.57% |  | 54.87% |
| KVEAYβKβAβAβAβAβ [Analog S60] |  | 10.05% | 6.096% |  | 41.39% |
| EKPKVEβ^3Aβ^3Yβ^3Kβ^3Aβ^3Aβ^3Aβ^3Aβ^3Pβ^3Aβ^3 [Analog S10] |  | 19.89% | 15.94% |  | 51.23% |
| KVEAYKAβAβAβAβ [Analog S58] |  | 11.02% | 7.059% |  | 42.35% |
| EKPKVEAYKβAβAβAβAβPAβ (EKPKVEAY[Kβ]XXXXPX; not fully specified (residues 10, 11, 12, 13, 15); printed as EKPKVEAYKβAβAβAβAβPAβ) [Analog S46] |  | 21.93% | 17.97% |  | 53.26% |
| KVEAYKAAAβ^3Aβ^3 (KVEAYKAA[β3hA][β3hA]) [Analog S18] |  | −3.957% | −7.914% |  | 27.38% |
| KVEβAβYβKβ [Analog S69] |  | −8.877% | −12.8342% |  | 22.46% |
| EKPKVEAYKAAAAβPAβ [Analog S42] |  | 3.316% | −0.6417% |  | 34.65% |
| EKPKVEAβYβKβAβAβAβAβPAβ [Analog S48] |  | 22.89% | 18.93% |  | 54.2246% |
| KVEAYβKβ (KVEA[Yβ][Kβ″]) [Analog S67] |  | −12.9412% | −16.8984% |  | 18.4% |
| KVEβ^3Aβ^3Yβ^3Kβ^3Aβ^3Aβ^3Aβ^3Aβ^3 [Analog S24] |  | 20.32% | 16.36% |  | 51.66% |

| Substance | delay of clinical onset of disease [1] | Therapeutic activity in comparison to GA (Therapeutic activity (Analogs) − Therapeutic activity GA) [2] | Therapeutic activity in comparison to J5 (Therapeutic activity (Analogs) − Therapeutic activity (J5)) [2] | efficacy relative to GA ([2]; both treatment and pre-treatment scenarios) | Therapeutic activity = % reduction in cumulative clinical disability score [2] |
| --- | --- | --- | --- | --- | --- |
| KVEAYKβ [Analog S66] |  | −9.412% | −13.369% |  | 21.93% |
| EKPKVEAYKAAβ^3Aβ^3Aβ^3Pβ^3Aβ^3 [Analog S5] |  | 11.02% | 7.059% |  | 42.35% |
| KβVβEβAβYβKβAβAβAβAβ [Analog S64] |  | −7.38% | −11.3369% |  | 23.96% |
| VEAYβ^3Kβ^3 (VEA[β3hY][β3hK]) [Analog S36] |  | −2.46% | −6.417% |  | 28.88% |
| KβVβEAYβKβ [Analog S72] |  | −15.9358% | −19.8931% |  | 15.4% |
| EKβ^3Pβ^3Kβ^3Vβ^3Eβ^3Aβ^3Yβ^3Kβ^3Aβ^3Aβ^3Aβ^3Aβ^3Pβ^3Aβ^3 [Analog S14] |  | 27.91% | 23.96% |  | 59.25% |
| EKPKVEAYKAAAβAβPAβ [Analog S43] |  | 9.947% | 5.989% |  | 41.28% |
| EKPKVEAYβKβAβAβAβAβPAβ [Analog S47] |  | 20.96% | 17.01% |  | 52.3% |
| EKPKVEAYβ^3Kβ^3Aβ^3Aβ^3Aβ^3Aβ^3Pβ^3Aβ^3 [Analog S7] |  | 22.46% | 18.5% |  | 53.8% |
| EKPKVEAYKβ^3Aβ^3Aβ^3Aβ^3Aβ^3Pβ^3Aβ^3 [Analog S6] |  | 19.47% | 15.51% |  | 50.8% |
| VEAYKβ^3 (VEAY[β3hK]) [Analog S35] |  | −6.952% | −10.9091% |  | 24.39% |
| KVEAYKAAAAβ [Analog S55] |  | −2.781% | −6.738% |  | 28.56% |
| EKPKVEβAβYβKβAβAβAβAβPAβ [Analog S49] |  | 18.93% | 14.97% |  | 50.27% |
| KVβ^3Eβ^3Aβ^3Yβ^3Kβ^3 [Analog S32] |  | 11.23% | 7.273% |  | 42.57% |
| KVβ^3Eβ^3Aβ^3Yβ^3Kβ^3Aβ^3Aβ^3Aβ^3Aβ^3 [Analog S25] |  | 22.25% | 18.29% |  | 53.58% |
| EβKβPKβVβEAYβKβAβAβAβAβPAβ [Analog S54] |  | −1.6E−06% | −3.957% |  | 31.3369% |
